Each structure is given as a SMILES string.

T1 sequence (P97639 whole entry): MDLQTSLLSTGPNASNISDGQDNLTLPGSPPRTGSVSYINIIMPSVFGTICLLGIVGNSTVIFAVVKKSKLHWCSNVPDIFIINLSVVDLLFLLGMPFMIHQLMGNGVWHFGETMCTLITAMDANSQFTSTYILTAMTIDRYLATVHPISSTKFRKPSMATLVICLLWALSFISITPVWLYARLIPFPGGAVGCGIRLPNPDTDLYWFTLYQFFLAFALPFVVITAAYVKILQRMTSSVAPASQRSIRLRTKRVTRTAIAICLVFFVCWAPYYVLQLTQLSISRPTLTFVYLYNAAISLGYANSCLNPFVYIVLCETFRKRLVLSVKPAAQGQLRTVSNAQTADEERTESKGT

The first test addresses T1, rat MCH1 receptor (Rattus norvegicus, UniProt P97639).
T1 construct: expressed in transfected cells; host or cells: Human embryonic kidney Peak rapid 293 cells (Peakr293), transient, calcium phosphate; membranes
Description: Radioligand binding assay at cloned rat MCH1 receptor ([3H]Compound A displacement). As to conditions: KI, cloned rat MCH1, membranes of transfected Peakr293 cells, 0.08 nM [3H]Compound A, 25° C., 90 minutes. On the procedure: For binding assays, pellets of transfected cells are suspended in ice-cold buffer (20 mM Tris.HCl, 5 mM EDTA, pH 7.4) and homogenized by sonication for 7 sec. The cell lysates are centrifuged at 200×g for 5 min at 4° C. The supernatants are then centrifuged at 40,000×g for 20 min at 4° C. The resulting pellets are washed once in the homogenization buffer and suspended in binding buffer (see methods for radioligand binding). Protein concentrations are determined by the method of Bradford (1976) using bovine serum albumin as the standard. Binding assays are usually performed immediately, however it is possible to prepare membranes in batch and store frozen in liquid nitrogen for future use.
Radioligand binding assays for the rat MCH1 receptor were carried out using plasmid pcDNA3.1-rMCH1-f (ATCC Patent Deposit Designation No. PTA-3505). Plasmid pcDNA3.1-rMCH1-f comprises the regulatory elements necessary for expression of DNA in a mammalian cell operatively linked to DNA encoding the rat MCH1 receptor so as to permit expression thereof. Plasmid pcDNA3.1-rMCH1-f was deposited on Jul. 5, 2001, with the American Type Culture Collection (ATCC), 12301 Parklawn Drive, Rockville, Md. 20852, U.S.A. under the provisions of the Budapest Treaty for the International Recognition of the Deposit of Microorganisms for the Purposes of Patent Procedure and was accorded ATCC Patent Deposit Designation No. PTA-3505.
Human embryonic kidney Peak rapid 293 cells (Peakr293 cells) were transiently transfected with DNA encoding the MCH1 receptor utilizing the calcium phosphate method and cell membranes were prepared as described above. Binding experiments with membranes from Peakr293 cells transfected with the rat MCH1 receptor were performed with 0.08 nM [^3H]Compound A (custom labeled by Amersham) (the synthesis of Compound A is described in detail below) using an incubation buffer consisting of 50 mM Tris pH 7.4, 10 mM MgCl2, 0.16 mM PMSF, 1 mM 1,10 phenantroline and 0.2% BSA. Binding was performed at 25° C. for 90 minutes. Incubations were terminated by rapid vacuum filtration over GF/C glass fiber filters, presoaked in 5% PEI using […] Tris pH 7.4 as wash buffer. In all experiments, nonspecific binding is defined using […] Compound A.
The compounds described above were assayed using cloned rat MCH1.
Turning to `S=C(NCCCCCCN1CCC2(CCc3ccccc32)CC1)Nc1cccc2ccccc12` [Example 24, (NAPHTHYLAMINO)[(6-SPIRO[INDANE-1,4′-PIPERIDINE]-10-YLHEXYL)AMINO]METHANE-1-THIONE], the inhibitory constant (Ki) was determined as 668 nM.
Same read-out and setting: under `O=C(NCCCCCN1CCC2(C=Cc3ccccc32)CC1)C(c1ccccc1)c1ccccc1` [Example 40, 2,2-DIPHENYL-N-(5-(SPIRO[INDENE-1,4′-PIPERIDINE]-10-YL)PENTYL)ACETAMIDE] stands 384 nM; under `O=C(NCCCN1CCC2(C=Cc3ccccc32)CC1)C(c1ccc(F)cc1)c1ccc(F)cc1` [Example 67, 2,2-BIS(4-FLUOROPHENYL)-N-(3-(SPIRO[INDENE-1,4′-PIPERIDINE]-10-YL)PROPYL)ACETAMIDE], 2.4 nM; under `O=C(NCCCCCN1CCC2(CCc3ccccc32)CC1)C(c1ccccc1)c1ccccc1` [Example 3, 2,2-DIPHENYL-N-(5-(SPIRO[INDANE-1,4′-PIPERIDINE]-10-YL)PENTYL)ACETAMIDE], 378 nM.
`O=C(NCCCN1CCC2(CCc3ccccc32)CC1)C(c1ccccc1)(c1ccccc1)c1ccccc1` [Example 49, 2,2,2-TRIPHENYL-N-(3-(SPIRO[INDANE-1,4′-PIPERIDINE]-10-YL)PROPYL)ACETAMIDE] showed an inhibition constant Ki of 121 nM.
The same measure, in the same setting: under `Cc1ccc(C(C(=O)NCCCN2CCC3(CCc4ccccc43)CC2)c2ccc(C)cc2)cc1` [Example 48, 2,2-BIS(4-METHYL)PHENYL)-N-(3-(SPIRO[INDANE-1,4′-PIPERIDINE]-10-YL)PROPYL)ACETAMIDE] stands 29.7 nM; under `CC(C)(C(=O)NCCCN1CCC2(CCc3ccccc32)CC1)c1ccc(Cl)cc1` [Example 46], 84.1 nM.
Still for that read-out and setting: under `O=C(NCCCN1CCC2(CCc3ccccc32)CC1)C1(c2ccc(Cl)cc2)CCC1` [Example 59, [1-(4-CHLOROPHENYL)CYCLOBUTYL]-N-(3-(SPIRO[INDANE-1,4′-PIPERIDINE]-10-YL)PROPYL)CARBOXAMIDE] stands 175 nM.
On the same count and under the same terms, under `O=C(NCCCN1CCC2(CC1)OCc1ccccc12)C1(c2ccc(F)cc2)CCCC1` [Example 79, [(4-FLUOROPHENYL)CYCLOPENTYL]-N-(3-(SPIRO[1,3-DIHYDROISOBENZOFURAN-1,4′-PIPERIDINE]-10-YL)PROPYL)CARBOXAMIDE] stands 514 nM; under `CC(C(=O)NCCCN1CCC2(C=Cc3ccccc32)CC1)(c1ccccc1)c1ccccc1` [Example 63, 2,2-DIPHENYL-N-(3-(SPIRO[INDENE-1,4′-PIPERIDINE]-10-YL)PROPYL)PROPANAMIDE], 46 nM; under `O=C(NCCCN1CCC2(C=Cc3ccccc32)CC1)C(c1ccccc1)(c1ccccc1)c1ccccc1` [Example 64, 2,2,2-TRIPHENYL-N-(3-(SPIRO[INDENE-1,4′-PIPERIDINE]-10-YL)PROPYL)ACETAMIDE], 36 nM.
Regarding `O=C(NCCCN1CCC2(CC1)OCc1ccccc12)C1(c2ccc(F)cc2)CCCCC1` [Example 80, [(4-FLUOROPHENYL)CYCLOHEXYL]-N-(3-(SPIRO[1,3-DIHYDROISOBENZOFURAN-1,4′-PIPERIDINE]-10-YL)PROPYL)CARBOXAMIDE], the affinity corresponds to a Ki of 174 nM.
`O=C(NCCCCCCN1CCC2(CCc3ccccc32)CC1)c1cc(F)cc(F)c1` [Example 14]: the affinity corresponds to a Ki of 843 nM.
`O=C(NCCCCCCN1CCC2(CCc3ccccc32)CC1)C(c1ccccc1)c1ccccc1` [Example 5, 2,2-DIPHENYL-N-(6-(SPIRO[INDANE-1,4′-PIPERIDINE]-10-Y)LHEXYL)ACETAMIDE] displayed a Ki of 732 nM.
Same read-out and setting: under `O=C(NCCCN1CCC2(CC1)OCc1cc(F)c(F)c(F)c12)C(c1ccccc1)c1ccccc1` [Example 99, 2,2-DIPHENYL-N-[3-(4,5,6-TRIFLUOROSPIRO[1,3-DIHYDROISOBENZOFURAN-3,4′-PIPERIDINE]-10-YL)PROPYL]ACETAMIDE] stands 11.6 nM.

The same test, now with this note: cloned rat MCH1, membranes of transfected Peakr293 cells, 0.08 nM [3H]Compound A, 25° C., 90 minutes; read-out: KI.
Regarding `CC(C)c1ccc2c(c1)COC21CCN(CCCNC(=O)C(c2ccccc2)c2ccccc2)CC1` [Example 102, N-{3-[5-(METHYLETHYL)SPIRO[1,3-DIHYDROISOBENZOFURAN-1,4′-PIPERIDINE]-10-YL]PROPYL}-2,2-DIPHENYLACETAMIDE], the inhibition constant Ki was 162 nM.
The same measure, in the same setting: under `O=C(NCCCN1CCC2(CCc3ccccc32)CC1)C(c1ccc(Cl)cc1)c1ccc(Cl)cc1` [Example 55, 2,2-BIS(4-CHLOROPHENYL)-N-(3-(SPIRO[INDANE-1,4′-PIPERIDINE]-10-YL)PROPYL)ACETAMIDE] stands 8.6 nM.
On to `O=C(NCCCN1CCC2(CC1)OCc1ccccc12)C1(c2ccc(Cl)cc2)CC1` [Example 89, [(4-CHLOROPHENYL)CYCLOPROPYL]-N-(3-(SPIRO[1,3-DIHYDROISOBENZOFURAN-1,4′-PIPERIDINE]-10-YL)PROPYL)CARBOXAMIDE], for which the inhibition constant Ki is 481 nM.
For `O=C(NCCCN1CCC2(CC1)Cc1ccccc1C2)C(c1ccccc1)c1ccccc1` [Example 61, 2,2-DIPHENYL-N-(3-(SPIRO[INDANE-2,4′-PIPERIDINE]-10-YL)PROPYL)ACETAMIDE], the Ki is 49 nM.
Same read-out and setting: under `O=C(NCCCN1CCC2(CCCc3ccccc32)CC1)C(c1ccccc1)c1ccccc1` [Example 96, 2,2-DIPHENYL-N-(3-(SPIRO[1,2,3,4-TETRAHYDRONAPHTHALENE-1,4′-PIPERIDINE]-11-YL) PROPYL)ACETAMIDE] stands 128 nM; under `O=C1OC2(CCN(CCCNC(=O)C(c3ccccc3)c3ccccc3)CC2)c2ccccc21` [Example 93, N-[3-(1-OXOSPIRO[3-HYDROISOBENZOFURAN-3,4′-PIPERIDINE]-10-YL)PROPYL]-2,2-DIPHENYLACETAMIDE], 783 nM; under `O=C(NCCCCCN1CCC2(CCc3ccccc32)CC1)Nc1ccc(-c2ccccc2)cc1` [Example 27, N-(4-PHENYL)PHENYL)[(5-(SPIRO[INDANE-1,4′-PIPERIDINE]-10-YL)PENTYL)AMINO]CARBOXAMIDE], 662 nM.
`O=C(NCCCN1CCC2(CCCc3ccccc32)CC1)C(c1ccccc1)c1ccccc1` [Example 39, 2,2-DIPHENYL-N-(3-SPIRO[1,2,3,4-TETRAHYDRONAPHTHALENE-1,4′-PIPERIDINE]-11-YLPROPYL)ACETAMIDE]: the Ki was 128 nM.
Same read-out and setting: under `O=C(NCCCN1CCC2(CC1)OCc1ccccc12)C(c1ccc(Cl)cc1)c1ccc(Cl)cc1` [Example 90, 2,2-BIS(4-CHLOROPHENYL)-N-(3-(SPIRO[1,3-DIHYDROISOBENZOFURAN-1,4′-PIPERIDINE]-10-YL)PROPYL)ACETAMIDE] stands 5.4 nM.
With `O=C(NCCCCCCN1CCC2(CCc3ccccc32)CC1)c1ccc(-c2ccccc2)cc1` [Example 2, (4-PHENYL)PHENYL)-N-(6-(SPIRO[INDANE-1,4′-PIPERIDINE]-10-YL)HEXYL)CARBOXAMIDE], the inhibitory constant (Ki) was determined as 970 nM.
Regarding `O=C(NCCCN1CCC2(CCc3ccccc32)CC1)C(c1ccccc1)c1ccccc1` [Example 6, 2,2-DIPHENYL-N-(3-(SPIRO[INDANE-1,4′-PIPERIDINE]-10-YL)PROPYL)ACETAMIDE], the Ki amounted to 33.8 nM.
On the same count and under the same terms, under `CC(C)(C)c1cc(C(=O)NCCCCCN2CCC3(C=Cc4ccccc43)CC2)n(Cc2ccccc2)n1` [Example 37, [3-(TERT-BUTYL)-1-BENZYL)PYRAZOL-5-YL]-N-(5-(SPIRO[INDENE-1,4′-PIPERIDINE]-10-YL)PENTYL)CARBOXAMIDE] stands 794 nM; under `O=C(NCCN1CCC2(CCc3ccccc32)CC1)c1cc(Cl)cc(Cl)c1` [Example 44, (3,5-DICHLOROPHENYL)-N-(2-(SPIRO[INDANE-1,4′-PIPERIDINE]-10-YLETHYL)CARBOXAMIDE], 182 nM; under `O=C(NCCCN1CCC2(C=Cc3ccccc32)CC1)C1(c2ccc(Cl)cc2)CCCC1` [Example 69, [(4-CHLOROPHENYL)CYCLOPENTYL]-N-(3-(SPIRO[INDENE-1,4′-PIPERIDINE]-10-YL)PROPYL)CARBOXAMIDE], 104 nM.
Consider `CC(C)(C(=O)NCCCN1CCC2(CC1)OCc1ccccc12)c1ccc(Cl)cc1` [Example 81, 2-(4-CHLOROPHENYL)-2-METHYL-N-(3-(SPIRO[1,3-DIHYDROISOBENZOFURAN-1,4′-PIPERIDINE]-10-YL)PROPYL)PROPANAMIDE], for which the Ki came out at 185 nM.
Same read-out and setting: under `O=C(NCCCCN1CCC2(CCc3ccccc32)CC1)c1cc(Cl)cc(Cl)c1` [Example 7, (3,5-DICHLOROPHENYL)-N-[(4-(SPIRO[INDANE-1,4′-PIPERIDINE]-10-YL)BUTYL)AMINO]CARBOXAMIDE] stands 271 nM.
The same measure, in the same setting: under `O=C(NCCCCCN1CCC2(C=Cc3ccccc32)CC1)c1sc2ccccc2c1Cl` [Example 36, (3-CHLOROBENZO[B]THIOPHEN-2-YL)-N-(5-(SPIRO[INDENE-1,4′-PIPERIDINE]-10-YL)PENTYL)CARBOXAMIDE] stands 736 nM.
